Experiment [1] has as its system Escherichia coli. In words: Inactivation of histidine6-tagged Escherichia coli LMG194 AmiD at 14 uM.
Experiment [2] deals with Escherichia coli. In words: Inactivation of histidine6-tagged Escherichia coli LMG194 AmiD at 27 uM.

Active and inactive are the calls of the source. No cut-off for these calls is given here.

Turning to `CC(=O)N[C@H]1[C@@H]2OC[C@@H](O2)[C@@H](O[C@@H]2O[C@H](CO)[C@@H](O)C(O)[C@H]2NC(C)=O)[C@@H]1O[C@@H](C)C(=O)N[C@@H](C)C(=O)N[C@H](CCC(=O)N[C@H](CCC[C@H](N)C(=O)O)C(=O)N[C@H](C)C(=O)O)C(=O)O` (single isomer, unassigned), the inhibition result in the experiment on Escherichia coli [1] and in the experiment with Escherichia coli [2] was “Active” each time.

These data come from ChEMBL document CHEMBL1649183, “Substrate-induced inactivation of the Escherichia coli AmiD N-acetylmuramoyl-L-alanine amidase highlights a new strategy to inhibit this class of enzyme” (Antimicrob Agents Chemother, 2009).
